Type in all cases: cell-based, human
The test system of one data set is adipocytes. As to the kind of experiment: Triglyceride accumulation assay in adipocytes. As for the experimental part: The triglyceride accumulation assay measures the synthesis of triglyceride by adipocytes. Triglyceride accumulation is measured using the Infinity™ Triglyceride reagent kit (Sigma-Aldrich, St. Louis, Mo.). On day nine post-transfection, cells are washed and lysed at room temperature, and the triglyceride assay reagent is added. Triglyceride accumulation is measured based on the amount of glycerol liberated from triglycerides by the enzyme lipoprotein lipase. Liberated glycerol is phosphorylated by glycerol kinase, and hydrogen peroxide is generated during the oxidation of glycerol-1-phosphate to dihydroxyacetone phosphate by glycerol phosphate oxidase. Horseradish peroxidase (HRP) uses H2O2 to oxidize 4-aminoantipyrine and 3,5 dichloro-2-hydroxybenzene sulfonate to produce a red-colored dye. Dye absorbance, which is proportional to the concentration of glycerol, is measured at 515 nm using an UV spectrophotometer. Glycerol concentration is calculated from a standard curve for each assay, and data are normalized to total cellular protein as determined by a Bradford assay (Bio-Rad Laboratories, Hercules, Calif.).
An increase in triglyceride content is another well-established marker for adipocyte differentiation. The triglyceride accumulation assay measures the synthesis of triglyceride by adipocytes. Triglyceride accumulation was measured using the Infinity™ Triglyceride reagent kit (Sigma-Aldrich, St. Louis, Mo.). Human white preadipocytes (Zen-Bio Inc., Research Triangle Park, N.C.) were grown in preadipocyte media (ZenBio Inc.). One day before transfection, 96-well plates were seeded with 3000 cells/well. Cells were transfected according to standard published procedures with 250 nM oligomeric compound in LIPOFECTIN™ (Invitrogen Corporation, Carlsbad, Calif.) (Monia et al., J. Biol. Chem. 1993 268(19):14514-22). Oligomeric compounds were tested in triplicate on each 96-well plate, and the effects of TNF-α, a positive drug control that inhibits adipocyte differentiation, were also measured in triplicate. Negative and transfectant-only controls may be measured up to six times per plate. After the cells have reached confluence (approximately three days), they were exposed to differentiation media (Zen-Bio, Inc.) containing a PPAR-γ agonist, IBMX, dexamethasone, and insulin for three days. Cells were then fed adipocyte media (Zen-Bio, Inc.), which was replaced at 2 to 3 day intervals. […] Triglyceride accumulation was measured based on the amount of glycerol liberated from triglycerides by the enzyme lipoprotein lipase. Liberated glycerol is phosphorylated by glycerol kinase, and hydrogen peroxide is generated during the oxidation of glycerol-1-phosphate to dihydroxyacetone phosphate by glycerol phosphate oxidase. Horseradish peroxidase (HRP) uses H2O2 to oxidize 4-aminoantipyrine and 3,5 dichloro-2-hydroxybenzene sulfonate to produce a red-colored dye. Dye absorbance, which is proportional to the concentration of glycerol, was measured at 515 nm using an UV spectrophotometer. Glycerol concentration was calculated from a standard curve for each assay, and data were normalized to total cellular protein as determined by a Bradford assay (Bio-Rad Laboratories, Hercules, Calif.). Results are expressed as a percent±standard deviation relative to transfectant-only control.

The test system of another data set is Glut4. As to the kind of experiment: Glut4 mRNA expression in adipocytes (real-time PCR). As for the experimental part:
(§1) Expression of the four hallmark genes, HSL, aP2, Glut4, and PPARγ, is also measured in adipocytes transfected with oligomeric compounds of the invention. Cells are lysed on day nine post-transfection and total RNA is harvested. The amount of total RNA in each sample is determined using a Ribogreen Assay (Invitrogen Life Technologies, Carlsbad, Calif.).
(§2) For assaying adipocyte differentiation, expression of the four hallmark genes, HSL, aP2, Glut4, and PPARγ, as well as triglyceride (TG) accumulation and leptin secretion were measured in adipocytes transfected with the uniform 2′-MOE phosphorothioate (PS) oligomeric compounds previously described. Cells are lysed on day nine post-transfection, in a guanadinium-containing buffer and total RNA is harvested. Real-time PCR is performed (Applied Biosystems, Prism 7700) on the total RNA using the following primer/probe sets for the adipocyte differentiation hallmark genes: (aP2): forward 5′-GGTGGTGGAATGCGTCATG-3′ (SEQ ID NO: 746), reverse 5′-[…]-3′ (SEQ ID NO: 747), probe 5′-FAM-[…]-TAMRA-3′ (SEQ ID NO: 748); (Glut4): forward 5′-GGCCTCCGCAGGTTCTG-3′ (SEQ ID NO: 749), reverse 5′-[…]-3′ (SEQ ID NO: 750), probe 5′-FAM-[…]-TAMRA-3′ (SEQ ID NO: 751); (HSL): forward 5′-ACCTGCGCACAATGACACA-3′ (SEQ ID NO: 752), reverse 5′-[…]-3′ (SEQ ID NO: 753), probe 5′-FAM-[…]-TAMRA-3′ (SEQ ID NO: 754); (PPAR-γ): forward 5′-[…]-3′ (SEQ ID NO: 755), reverse 5′-[…]-3′ (SEQ ID NO: 756), probe 5′-FAM-[…]-TAMRA-3′ (SEQ ID NO: 757). The amount of total RNA in each sample is determined using a Ribogreen Assay (Molecular Probes, Eugene, Oreg.), and expression levels of the adipocyte differentiation hallmark genes were normalized to total RNA.
(Real-time PCR tracks product formation cycle by cycle.)

The next data set deals with aP2. In words: aP2 mRNA expression in adipocytes (real-time PCR). The note with it: for aP2 mRNA: differentiating adipocytes transfected with oligomeric compound, Table 75; for AP2 mRNA: Table 17, differentiating adipocytes, control = treatment with ISIS 342673. As for the experimental part: as §1, §2
The subject of another data set is PPARγ. In words: PPARγ mRNA expression in adipocytes (real-time PCR). As for the experimental part:
as §1, §2

For the next data set, the system named is HSL. In words: HSL mRNA expression in adipocytes (real-time PCR). As for the experimental part:
as §1, §2

Where [1] appears, read: differentiating adipocytes transfected with oligomeric compound, Table 75.
The mark [2] stands for this setting: Table 17, differentiating adipocytes, control = treatment with ISIS 342673.

In the oligonucleotide strings, read from the 5' end, every base follows the letter of its sugar. An asterisk marks phosphorothioate; unmarked linkages are phosphodiester. Other units and linkages are bracketed, terminal groups are in braces. A string of capitals states the bases alone. e = 2'-O-(2-methoxyethyl) (MOE); [5mC] = 5-methylcytosine

Turning to “344340 (UGUCCGUGGUUCUACCCUGUGGUA; all 2'-MOE, all phosphorothioate, methylation of C and T or U not given here) [compound 344340]”, the “TG (triglyceride accumulation)” value in the data set with adipocytes (setting [1]) is on record as 60 percentage of untreated control (UTC). Besides, the “GLUT4 mRNA” value with Glut4 (setting [1]) is given as 16 percentage of untreated control (UTC). Also, in the data set on aP2, the “aP2 mRNA” value is 82 percentage of untreated control (UTC). In addition, the “PPAR gamma mRNA” value with PPARγ (setting [1]) is given as 67 percentage of untreated control (UTC). The “HSL mRNA” value with HSL (setting [1]) is recorded as 47 percentage of untreated control (UTC).
As to “328126 (antisense e[5mC]*e[5mC]*eA*eA*eG*eT*eG*eT*eT*eA*eG*eA*eG*e[5mC]*eA*eA*eG*eA*eT*e[5mC]*eA) [compound 328126]”, the “TG (triglyceride accumulation)” value with adipocytes (setting [2]) is on record as 98.9 percentage of control; in the data set on adipocytes (setting [1]) it was 108 percentage of untreated control (UTC). The “GLUT4 mRNA” value in the data set on Glut4 (setting [2]) was 100.7 percentage of control; with Glut4 (setting [1]), 107 percentage of untreated control (UTC). Besides, the “AP2 mRNA” value in the data set on aP2 was 90.9 percentage of control. For the same substance, in the data set on aP2, the “aP2 mRNA” value was 120 percentage of untreated control (UTC). In addition, the “PPAR gamma mRNA” value in the data set with PPARγ (setting [2]) is given as 75.0 percentage of control; with PPARγ (setting [1]) it was 98 percentage of untreated control (UTC). For the same substance, the “HSL mRNA” value is listed as 83.2 percentage of control with HSL (setting [2]) and 135 percentage of untreated control (UTC) with HSL (setting [1]).
In the case of “340354 (antisense UCAGACCGAGACAAGUGCAAUG; all 2'-MOE, all phosphorothioate, methylation of C and T or U not given here) [compound 340354]”, the “TG (triglyceride accumulation)” value in the data set with adipocytes (setting [1]) is given as 64 percentage of untreated control (UTC). For the same substance, in the data set on Glut4 (setting [1]), the “GLUT4 mRNA” value is 61 percentage of untreated control (UTC). Further, in the data set with aP2, the “aP2 mRNA” value is reported as 72 percentage of untreated control (UTC). Further, the “PPAR gamma mRNA” value in the data set with PPARγ (setting [1]) is recorded as 74 percentage of untreated control (UTC). The “HSL mRNA” value with HSL (setting [1]) was 56 percentage of untreated control (UTC).
“344614 (CCAGCAGCACCUGGGGCAGU; all 2'-MOE, all phosphorothioate, methylation of C and T or U not given here) [compound 344614]”: in the data set with adipocytes (setting [1]), the “TG (triglyceride accumulation)” value is 89 percentage of untreated control (UTC). The “GLUT4 mRNA” value in the data set with Glut4 (setting [1]) is 61 percentage of untreated control (UTC). In the data set on aP2, the “aP2 mRNA” value is reported as 78 percentage of untreated control (UTC). In addition, the “PPAR gamma mRNA” value in the data set with PPARγ (setting [1]) is given as 86 percentage of untreated control (UTC). The “HSL mRNA” value with HSL (setting [1]) is given as 71 percentage of untreated control (UTC).
For “328096 (antisense e[5mC]*e[5mC]*eT*e[5mC]*eT*e[5mC]*eA*eA*eA*eG*eA*eT*eT*eT*e[5mC]*e[5mC]*eT*eG*eT*e[5mC]*eA) [compound 328096]”, in that order: 74 percentage of untreated control (UTC), 79 percentage of untreated control (UTC), 71 percentage of untreated control (UTC), 89 percentage of untreated control (UTC) and 76 percentage of untreated control (UTC).
For “346692 (UAAACGGAACCACUAGUGACUUG; all 2'-MOE, all phosphorothioate, methylation of C and T or U not given here) [compound 346692]”, in that order: 35 percentage of untreated control (UTC), 11 percentage of untreated control (UTC), 26 percentage of untreated control (UTC), 28 percentage of untreated control (UTC) and 18 percentage of untreated control (UTC).
Regarding “328116 (antisense e[5mC]*eA*eA*eA*eA*eT*eT*eG*e[5mC]*eA*eA*eG*e[5mC]*eA*eA*eA*eT*eT*eG*e[5mC]*eA) [compound 328116]”, the figures for the “TG (triglyceride accumulation)” value in the data set with adipocytes (setting [2]) and in the data set with adipocytes (setting [1]) were 82.1 percentage of control and 107 percentage of untreated control (UTC), respectively. Further, the “GLUT4 mRNA” value in the data set with Glut4 (setting [2]) was 75.2 percentage of control; in the data set with Glut4 (setting [1]) it was 105 percentage of untreated control (UTC). Moreover, the “AP2 mRNA” value in the data set with aP2 is 87.7 percentage of control. Besides, the “aP2 mRNA” value in the data set with aP2 is on record as 99 percentage of untreated control (UTC). The results for the “PPAR gamma mRNA” value in the data set with PPARγ (setting [2]) and in the data set with PPARγ (setting [1]) were 78.4 percentage of control and 95 percentage of untreated control (UTC), respectively. For the same substance, the entries for the “HSL mRNA” value in the data set on HSL (setting [2]) and with HSL (setting [1]) were 75.8 percentage of control and 91 percentage of untreated control (UTC), respectively.
Regarding “346917 (CAGCUAUGCCAGCAUCUUGCCU; all 2'-MOE, all phosphorothioate, methylation of C and T or U not given here) [compound 346917]”, the “TG (triglyceride accumulation)” value in the data set with adipocytes (setting [1]) is recorded as 39 percentage of untreated control (UTC). The “GLUT4 mRNA” value in the data set with Glut4 (setting [1]) is on record as 20 percentage of untreated control (UTC). In the data set with aP2, the “aP2 mRNA” value was 33 percentage of untreated control (UTC). Moreover, the “PPAR gamma mRNA” value in the data set with PPARγ (setting [1]) was 31 percentage of untreated control (UTC). In addition, the “HSL mRNA” value with HSL (setting [1]) is reported as 27 percentage of untreated control (UTC).
Regarding “346915 (ACAUCGUUACCAGACAGUGUUA; all 2'-MOE, all phosphorothioate, methylation of C and T or U not given here) [compound 346915]”, in the data set with adipocytes (setting [1]), the “TG (triglyceride accumulation)” value is on record as 73 percentage of untreated control (UTC). Also, the “GLUT4 mRNA” value in the data set on Glut4 (setting [1]) was 75 percentage of untreated control (UTC). Further, in the data set on aP2, the “aP2 mRNA” value is on record as 83 percentage of untreated control (UTC). Besides, the “PPAR gamma mRNA” value in the data set with PPARγ (setting [1]) is 90 percentage of untreated control (UTC). For the same substance, in the data set on HSL (setting [1]), the “HSL mRNA” value is on record as 67 percentage of untreated control (UTC).
On to “348125 (GCUGGAUGCAAACCUGCAAAACU; anti-miR; all 2'-MOE, all phosphorothioate, methylation of C and T or U not given here) [compound 348125]”, for which the “TG (triglyceride accumulation)” value in the data set on adipocytes (setting [1]) is given as 79 percentage of untreated control (UTC). Further, the “GLUT4 mRNA” value in the data set on Glut4 (setting [1]) is given as 65 percentage of untreated control (UTC). Moreover, the “aP2 mRNA” value in the data set on aP2 is 67 percentage of untreated control (UTC). Also, in the data set on PPARγ (setting [1]), the “PPAR gamma mRNA” value was 64 percentage of untreated control (UTC). In addition, the “HSL mRNA” value in the data set with HSL (setting [1]) is 64 percentage of untreated control (UTC).
